This is an account of results in patent US6960574B2, “Antagonists of RF-amide neuropeptides” (University of Florida, priority 2002, dated 2005).

For the experiment, the system named is receptor labeled by the radioiodinated analogue of 1 (4, [125I]-YLFQPQRF-NH2); neuropeptide FF receptor. Briefly: Competitive radioligand binding against 4 ([125I]Y8F-amide). Particulars: mixture-based positional scanning; difference from averaged radioligand displacement of whole library (0); about 80 a.u. = 10-fold change in Ki.

Peptide text beside a SMILES is read from it. * marks the point of attachment. Dansyl = CN(C)c1cccc2c(S(=O)(=O)*)cccc12

Consider `C[C@H](NC(=O)[C@H](CCCNC(=N)N)NS(=O)(=O)c1cccc2c(N(C)C)cccc12)C(=O)N[C@@H](CCCNC(=N)N)C(N)=O` [Dansyl-RAR-amide] (Dansyl-Arg-Ala-Arg-NH2), for which the “Relative Binding Index (RBI)” value is −42 a.u.
For the molecule `CN(C)c1cccc2c(S(=O)(=O)N[C@@H](CCCNC(=N)N)C(=O)N[C@@H](CC(=O)O)C(=O)N[C@@H](CCCNC(=N)N)C(N)=O)cccc12` [Dansyl-RDR-amide] (Dansyl-Arg-Asp-Arg-NH2), the “Relative Binding Index (RBI)” value was −11 a.u.
As to `CN(C)c1cccc2c(S(=O)(=O)N[C@@H](CCCNC(=N)N)C(=O)N[C@@H](CCC(=O)O)C(=O)N[C@@H](CCCNC(=N)N)C(N)=O)cccc12` [Dansyl-RER-amide] (Dansyl-Arg-Glu-Arg-NH2), the “Relative Binding Index (RBI)” value is 7 a.u.
The figure for `CN(C)c1cccc2c(S(=O)(=O)N[C@@H](CCCNC(=N)N)C(=O)N[C@@H](Cc3ccccc3)C(=O)N[C@@H](CCCNC(=N)N)C(N)=O)cccc12` [Dansyl-RFR-amide] (Dansyl-Arg-Phe-Arg-NH2) is 5 a.u; for `CN(C)c1cccc2c(S(=O)(=O)N[C@@H](CCCNC(=N)N)C(=O)NCC(=O)N[C@@H](CCCNC(=N)N)C(N)=O)cccc12` [Dansyl-RGR-amide] (Dansyl-Arg-Gly-Arg-NH2) it is 12 a.u; for `CN(C)c1cccc2c(S(=O)(=O)N[C@@H](CCCNC(=N)N)C(=O)N[C@@H](Cc3c[nH]cn3)C(=O)N[C@@H](CCCNC(=N)N)C(N)=O)cccc12` [Dansyl-RHR-amide] (Dansyl-Arg-His-Arg-NH2) it is 1 a.u.
Take `CC[C@H](C)[C@H](NC(=O)[C@H](CCCNC(=N)N)NS(=O)(=O)c1cccc2c(N(C)C)cccc12)C(=O)N[C@@H](CCCNC(=N)N)C(N)=O` [Dansyl-RIR-amide] (Dansyl-Arg-Ile-Arg-NH2): the “Relative Binding Index (RBI)” value was 13 a.u.
Turning to `CN(C)c1cccc2c(S(=O)(=O)N[C@@H](CCCNC(=N)N)C(=O)N[C@@H](CCCCN)C(=O)N[C@@H](CCCNC(=N)N)C(N)=O)cccc12` [Dansyl-RKR-amide] (Dansyl-Arg-Lys-Arg-NH2), the “Relative Binding Index (RBI)” value is reported as 4 a.u.
For the molecule `CC(C)C[C@H](NC(=O)[C@H](CCCNC(=N)N)NS(=O)(=O)c1cccc2c(N(C)C)cccc12)C(=O)N[C@@H](CCCNC(=N)N)C(N)=O` [Dansyl-RLR-amide], the “Relative Binding Index (RBI)” value is on record as −2 a.u.
On to `CSCC[C@H](NC(=O)[C@H](CCCNC(=N)N)NS(=O)(=O)c1cccc2c(N(C)C)cccc12)C(=O)N[C@@H](CCCNC(=N)N)C(N)=O` [Dansyl-RMR-amide] (Dansyl-Arg-Met-Arg-NH2), for which the “Relative Binding Index (RBI)” value is recorded as 7 a.u.
Take `CN(C)c1cccc2c(S(=O)(=O)N[C@@H](CCCNC(=N)N)C(=O)N[C@@H](CC(N)=O)C(=O)N[C@@H](CCCNC(=N)N)C(N)=O)cccc12` [Dansyl-RNR-amide] (Dansyl-Arg-Asn-Arg-NH2): the “Relative Binding Index (RBI)” value was 8 a.u.
`CN(C)c1cccc2c(S(=O)(=O)N[C@@H](CCCNC(=N)N)C(=O)N3CCC[C@H]3C(=O)N[C@@H](CCCNC(=N)N)C(N)=O)cccc12` [Dansyl-RPR-amide] (Dansyl-Arg-Pro-Arg-NH2): the “Relative Binding Index (RBI)” value came out at 10 a.u.
For `CN(C)c1cccc2c(S(=O)(=O)N[C@@H](CCCNC(=N)N)C(=O)N[C@@H](CCC(N)=O)C(=O)N[C@@H](CCCNC(=N)N)C(N)=O)cccc12` [Dansyl-RQR-amide] (Dansyl-Arg-Gln-Arg-NH2) the value was 20 a.u; for `CN(C)c1cccc2c(S(=O)(=O)N[C@@H](CCCNC(=N)N)C(=O)N[C@@H](CCCNC(=N)N)C(=O)N[C@@H](CCCNC(=N)N)C(N)=O)cccc12` [Dansyl-RRR-amide] (Dansyl-Arg-Arg-Arg-NH2), 5 a.u.
For `CN(C)c1cccc2c(S(=O)(=O)N[C@@H](CCCNC(=N)N)C(=O)N[C@@H](CO)C(=O)N[C@@H](CCCNC(=N)N)C(N)=O)cccc12` [Dansyl-RSR-amide] (Dansyl-Arg-Ser-Arg-NH2), the “Relative Binding Index (RBI)” value came to 27 a.u.
